According to the NIST ThermoML archive (doi:10.1021/acs.jced.7b01034):
Numbers after ± are expanded uncertainties.

What was measured:
[1] = molar heat capacity at constant pressure; conditions: 100 kPa, Crystal, DSC
[2] = Molar enthalpy of transition or fusion; conditions: Crystal; DSC
[3] = Crystal; DTA

O=c1cc(-c2ccccc2)oc2cccc(O)c12 [5-hydroxyflavone]
[1]
Conditions | molar heat capacity at constant pressure [J/K/mol]
293.15 K | 274.6 ± 14
298.15 K | 279.8 ± 14
303.15 K | 285.1 ± 14
308.15 K | 289.4 ± 14
313.15 K | 297 ± 15
318.15 K | 302.8 ± 15
323.15 K | 307 ± 15
328.15 K | 311.2 ± 16
333.15 K | 312.9 ± 16
338.15 K | 315.9 ± 16
343.15 K | 319.5 ± 16
348.15 K | 323.8 ± 16
353.15 K | 328.8 ± 16
358.15 K | 334.4 ± 17
363.15 K | 338.5 ± 17
368.15 K | 344.8 ± 17
373.15 K | 347.9 ± 17
378.15 K | 350.8 ± 18
383.15 K | 355.6 ± 18
388.15 K | 360.1 ± 18
393.15 K | 365.3 ± 18
398.15 K | 369.6 ± 18
403.15 K | 373.8 ± 19
408.15 K | 377.7 ± 19
413.15 K | 382.3 ± 19
418.15 K | 387.6 ± 19
423.15 K | 395.5 ± 20

Conditions | Molar enthalpy of transition or fusion [kcal/mol] | Normal melting temperature [°C]
[2] | 6.49 ± 0.21 | –
[3] | – | 158 ± 0.5

O=c1cc(-c2ccccc2)oc2ccc(O)cc12 [6-hydroxyflavone]
[1]
Conditions | molar heat capacity at constant pressure [J/K/mol]
293.15 K | 244.4 ± 12
298.15 K | 250.3 ± 12
303.15 K | 255.3 ± 13
308.15 K | 260.4 ± 13
313.15 K | 265.7 ± 13
318.15 K | 271.1 ± 14
323.15 K | 277 ± 14
328.15 K | 282.6 ± 14
333.15 K | 287.5 ± 14
338.15 K | 292.7 ± 15
343.15 K | 297.3 ± 15
348.15 K | 302.4 ± 15
353.15 K | 307.1 ± 15
358.15 K | 312.4 ± 16
363.15 K | 317.2 ± 16
368.15 K | 321.9 ± 16
373.15 K | 326.7 ± 16
378.15 K | 330.6 ± 16
383.15 K | 335.1 ± 17
388.15 K | 339.8 ± 17
393.15 K | 344.4 ± 17
398.15 K | 348.9 ± 17
403.15 K | 353.2 ± 18
408.15 K | 358.3 ± 18
413.15 K | 362.3 ± 18
418.15 K | 365.8 ± 18
423.15 K | 370.3 ± 18
428.15 K | 373.7 ± 19
433.15 K | 376.9 ± 19
438.15 K | 380.8 ± 19
443.15 K | 383.5 ± 19
448.15 K | 385.7 ± 19
453.15 K | 388.4 ± 19
458.15 K | 391.5 ± 20
463.15 K | 394.2 ± 20
468.15 K | 397.1 ± 20
473.15 K | 399.2 ± 20
478.15 K | 402 ± 20
483.15 K | 404.1 ± 20
488.15 K | 406.1 ± 20
493.15 K | 408.4 ± 20
498.15 K | 412 ± 21

Conditions | Molar enthalpy of transition or fusion [kcal/mol] | Normal melting temperature [°C]
[2] | 7.75 ± 0.311 | –
[3] | – | 236.2 ± 0.5

c1cc2ccc3cccc4ccc(c1)c2c34 [pyrene]
[1]
Conditions | molar heat capacity at constant pressure [J/K/mol]
293.15 K | 221.9 ± 11
298.15 K | 225.8 ± 11
303.15 K | 230.2 ± 12
308.15 K | 234.3 ± 12
313.15 K | 238.7 ± 12
318.15 K | 243 ± 12
323.15 K | 247.5 ± 12
328.15 K | 252.6 ± 13
333.15 K | 258.1 ± 13
338.15 K | 263.6 ± 13
343.15 K | 268.9 ± 13
348.15 K | 274.1 ± 14
353.15 K | 279.8 ± 14
358.15 K | 285.4 ± 14
363.15 K | 291.4 ± 15
368.15 K | 298.2 ± 15
373.15 K | 304.6 ± 15
378.15 K | 310.7 ± 16
383.15 K | 317.5 ± 16
388.15 K | 325.7 ± 16
393.15 K | 333.7 ± 17
398.15 K | 341.5 ± 17
403.15 K | 349.9 ± 18
408.15 K | 359.2 ± 18
413.15 K | 372.2 ± 19

Conditions | Molar enthalpy of transition or fusion [kcal/mol] | Normal melting temperature [°C]
[2] | 4.15 ± 0.155 | –
[3] | – | 150.8 ± 0.8

Nc1ccc2oc(-c3ccccc3)cc(=O)c2c1 [6-aminoflavone]
[1]
Conditions | molar heat capacity at constant pressure [J/K/mol]
293.15 K | 272.6 ± 14
298.15 K | 277.9 ± 14
303.15 K | 283.4 ± 14
308.15 K | 287.6 ± 14
313.15 K | 292.2 ± 15
318.15 K | 296.7 ± 15
323.15 K | 301.6 ± 15
328.15 K | 306.3 ± 15
333.15 K | 311.1 ± 16
338.15 K | 316.1 ± 16
343.15 K | 320.4 ± 16
348.15 K | 324.5 ± 16
353.15 K | 328.9 ± 16
358.15 K | 333.6 ± 17
363.15 K | 338.1 ± 17
368.15 K | 342.2 ± 17
373.15 K | 346.1 ± 17
378.15 K | 349.8 ± 18
383.15 K | 353.8 ± 18
388.15 K | 358.5 ± 18
393.15 K | 361.8 ± 18
398.15 K | 367.2 ± 18
403.15 K | 371 ± 19
408.15 K | 374.6 ± 19
413.15 K | 378.3 ± 19
418.15 K | 381.8 ± 19
423.15 K | 385.4 ± 19
428.15 K | 390.1 ± 20
433.15 K | 395.3 ± 20
438.15 K | 400.4 ± 20
443.15 K | 406.4 ± 20
448.15 K | 411.3 ± 21
453.15 K | 418.5 ± 21
458.15 K | 427.8 ± 21

Conditions | Molar enthalpy of transition or fusion [kcal/mol] | Normal melting temperature [°C]
[2] | 7.27 ± 0.263 | –
[3] | – | 198.8 ± 0.5
